Experimental data published in patent US10370405B2, “C-3 novel triterpenone with C-28 amide derivatives as HIV inhibitors” (HETERO LABS LIMITED, priority 2016, dated 2019).
Like-named read-outs stand apart in the source and are kept apart here.

Tests used:
[1] = test system: HIV-1 strain 92HT599; test: Antiviral activity: p24 estimation in MT2 cells infected with HIV-1; type: cell-based; conditions: for IC50: Human immunodeficiency virus 1, MT2; for inhibition at 0.01 µM / inhibition at 0.1 µM / inhibition at 1 µM: Human immunodeficiency virus 1, MT2 cells, HIV-1 92HT599, p24, ~96 hours
Experimental: MT2 cells were infected with HIV-1 strain 92HT599 (10 TCID 50/30000 cells). The infected cells were plated at the concentration of ˜30 000 cells per well in 96 well plate. Test compound was added to the micro plate in defined format with the final concentration of DMSO (vehicle) is not more than 1%. Incubation was carried out in CO2 incubator for ˜96 hours for viral infection. At the end of incubation period an aliquot from each well was taken for p24 estimation. The quantitation of p24 is an index for antiviral activity of the compound. Percent inhibition was calculated with reference to control values (vehicle controls). P-24 estimation was carried out using Advance biosciences kit as per the procedure detailed by supplier.

[2] = Single dose oral pharmacokinetic study; type: in vivo; conditions: mouse, plasma; Mice oral PK @30 mg/kg
Experimental: The test item was administered through oral route to animals (rat/mice) at 30 mg/kg dose in a suitable vehicle (10% Solutol+20% PEG) at 10 ml/kg dose volume. Blood samples (˜50 μL at each time point) were collected from retro-orbital plexus using K3 EDTA as anticoagulant in eppendorf tubes at defined time intervals 30 minutes, 1 hour, 2 hour, 4 hour, 8 hour, 24 hour & 48 hour under light ether anaesthesia. The samples were centrifuged at 3500×g to separate plasma and stored at −80° C. until analysis. Plasma […] for Mice were processed as per described in sample preparation.
Standard solutions of the test compound 1 mg/mL solutions were prepared in DMSO and further dilutions were made in methanol. The calibration curve samples for LCMSMS analysis were prepared by spiking 25 μl of Mice plasma with 2.5 μl and of the appropriate working standard solution to obtain final concentrations 0.078, 0.156, 0.312, 0.625, 1.25, 2.5, 5, 10, 20 & 40 µg/ml. To the test compound plasma extraction was carried out using Acetonitrile precipitation. After reconstitution with solvent (50% Acetonitrile in Buffer) samples were analyzed by LCMSMS to get the concentrations to calculate PK Parameters.

[3] = in vitro
Experimental: On day 1 calculate the number of cells required for the assay and seed 3×10^4 cells in 200 μl per well. Weigh the compound and dissolve it in DMSO to get 10 mM stock which is further diluted to 3 mM and 1 mM. The drugs from these stocks were added to plate to get final concentration of 100 μM, 30 μM and 10 μM. […] Incubate for 4 days in 5% CO2 incubator at 37° C. On day 4, 100 μl of medium was removed from each well without disturbing the cells. Add 10 μl of MTT reagent and incubate for 4 hours at 5% CO2 incubator at 37° C. for formation of crystals. Add 200 μl of 0.1N acidic isopropanol to dissolve the crystals and read the plate at 590 nm.

[4] = 0% serum, read-out: Antiviral activity IC50 (nM) 0%
[5] = read-out: Antiviral activity IC50 (nM) 40% serum

| SMILES | IC50 [1, 4] [nM] | IC50 [1, 5] [nM] | inhibition at 0.01 µM [1] [%] | inhibition at 0.1 µM [1] [%] | inhibition at 1 µM [1] [%] | AUC(0-t) [2] [µg·h/mL] | Cmax [2] [ng/mL] | viability at 4 days, 10 μM [3] [%] | viability at 4 days, 30 μM [3] [%] | viability at 4 days, 100 μM [3] [%] |
| --- | --- | --- | --- | --- | --- | --- | --- | --- | --- | --- |
| CC(C)C1=C2[C@H]3CC[C@@H]4[C@@]5(C)CC[C@H](OC(=O)[C@H]6C[C@@H](C(=O)O)C6(C)C)C(C)(C)[C@@H]5CC[C@@]4(C)[C@]3(C)CC[C@@]2(C(=O)NC(C)(C)c2ncc(-c3ccccc3)[nH]2)CC1=O [Example 8, (1R,3S)-3-((((3aR,5aR,5bR,7aR,9S,11aR,11bR,13aS)-1-isopropyl-5a,5b,8,8,11a-pentamethyl-2-oxo-3a-((2-(5-phenyl-1H-imidazol-2-yl)propan-2-yl)carbamoyl)-3,3a,4,5,5a,5b,6,7,7a,8,9,10,11,11a,11b,12,13,13a-octadecahydro-2H-cyclopenta[a]chrysen-9-yl)oxy)carbonyl)-2,2-dimethylcyclobutane-1-carboxylic acid] | 3.7 | 14.2 | 100 | 100 | 100 | 265 | 15200 | 29 | 5 | 2 |
| CC(C)C1=C2[C@H]3CC[C@@H]4[C@@]5(C)CC[C@H](OC(=O)[C@H]6C[C@@H](C(=O)O)C6(C)C)C(C)(C)[C@@H]5CC[C@@]4(C)[C@]3(C)CC[C@@]2(C(=O)N2CCC[C@H]2C(C)(C)O)CC1=O [Example 9, (1R,3S)-3-((((3aR,5aR,5bR,7aR,9S,11aR,11bR,13aS)-3a-((S)-2-(2-hydroxypropan-2-yl)pyrrolidine-1-carbonyl)-1-isopropyl-5a,5b,8,8,11a-pentamethyl-2-oxo-3,3a,4,5,5a,5b,6,7,7a,8,9,10,11,11a,11b,12,13,13a-octadecahydro-2H-cyclopenta[a]chrysen-9-yl)oxy)carbonyl)-2,2-dimethylcyclobutane-1-carboxylic acid] | 7.44 | 342 | 100 | 100 | 100 | 107 | 10900 | 40 | 9 | 8 |
| CC(C)C1=C2[C@H]3CC[C@@H]4[C@@]5(C)CC[C@H](OC(=O)[C@H]6C[C@@H](C(=O)O)C6(C)C)C(C)(C)[C@@H]5CC[C@@]4(C)[C@]3(C)CC[C@@]2(C(=O)NC(C)(C)c2ncc(-c3ccc(Cl)cc3)[nH]2)CC1=O [Example 11, (1R,3S)-3-((((3aR,5aR,5bR,7aR,9S,11aR,11bR,13aS)-3a-((2-(5-(4-chlorophenyl)-1H-imidazol-2-yl)propan-2-yl)carbamoyl)-1-isopropyl-5a,5b,8,8,11a-pentamethyl-2-oxo-3,3a,4,5,5a,5b,6,7,7a,8,9,10,11,11a,11b,12,13,13a-octadecahydro-2H-cyclopenta[a]chrysen-9-yl)oxy)carbonyl)-2,2-dimethylcyclobutane-1-carboxylic acid] | 2.93 | 118 | 92 | 99 | 99 | 143 | 10000 | 48 | 3 | 4 |
| CC(C)C1=C2[C@H]3CC[C@@H]4[C@@]5(C)CC[C@H](OC(=O)[C@H]6C[C@@H](C(=O)O)C6(C)C)C(C)(C)[C@@H]5CC[C@@]4(C)[C@]3(C)CC[C@@]2(C(=O)NC(C)(C)CN2CCCC2)CC1=O [Example 12, (1R,3S)-3-((((3aR,5aR,5bR,7aR,9S,11aR,11bR,13aS)-1-isopropyl-5a,5b,8,8,11a-pentamethyl-3a-((2-methyl-1-(pyrrolidin-1-yl)propan-2-yl)carbamoyl)-2-oxo-3,3a,4,5,5a,5b,6,7,7a,8,9,10,11,11a,11b,12,13,13a-octadecahydro-2H-cyclopenta[a]chrysen-9-yl)oxy)carbonyl)-2,2-dimethlcyclobutane-1-carboxylic acid] | 3.71 | 164 | 9 | 95 | 100 | 19 | 5100 | 100 | 100 | 96 |
| CC(C)C1=C2[C@H]3CC[C@@H]4[C@@]5(C)CC[C@H](OC(=O)[C@H]6C[C@@H](C(=O)O)C6(C)C)C(C)(C)[C@@H]5CC[C@@]4(C)[C@]3(C)CC[C@@]2(C(=O)N2CCC[C@H]2CN2CCCC2)CC1=O [Example 13, (1R,3S)-3-((((3aR,5aR,5bR,7aR,9S,11aR,1 bR,13aS)-1-isopropyl-5a,5b,8,8,11a-pentamethyl-2-oxo-3a-((S)-2-(pyrrolidin-1-ylmethyl)pyrrolidine-1-carbonyl)-3,3a,4,5,5a,5b,6,7,7a,8,9,10,11,11a,11b,12,13,13a-octadecahydro-2H-cyclopenta[a]chrysen-9-yl)oxy)carbonyl)-2,2-dimethylcyclobutane-1-carboxylic acid] | 0.73 | 17.1 | 96 | 100 | 100 | 320 | 17000 | 69 | 26 | 28 |
| CC(C)C1=C2[C@H]3CC[C@@H]4[C@@]5(C)CC[C@H](OC(=O)[C@H]6C[C@@H](C(=O)O)C6(C)C)C(C)(C)[C@@H]5CC[C@@]4(C)[C@]3(C)CC[C@@]2(C(=O)N(CCN(C)C)Cc2ccc(Cl)cc2)CC1=O [Example 14, (1R,3S)-3-((((3aR,5aR,5bR,7aR,9S,11aR,11bR,13aS)-3a-((4-chlorobenzyl)(2-(dimethylamino)ethyl)carbamoyl)-1-isopropyl-5a,5b,8,8,11a-pentamethyl-2-oxo-3,3a,4,5,5a,5b,6,7,7a,8,9,10,11,11a,11b,12,13,13a-octadecahydro-2H-cyclopenta[a]chrysen-9-yl)oxy)carbonyl)-2,2-dimethylcyclobutane-1-carboxylic acid] | 1.72 | 9.83 | 100 | 100 | 100 | 166 | 9640 | 91 | 12 | 12 |
| CC(C)C1=C2[C@H]3CC[C@@H]4[C@@]5(C)CC[C@H](OC(=O)[C@H]6C[C@@H](C(=O)O)C6(C)C)C(C)(C)[C@@H]5CC[C@@]4(C)[C@]3(C)CC[C@@]2(C(=O)NC(C)(C)CO)CC1=O [Example 15, (1R,3S)-3-((((3aR,5aR,5bR,7aR,9S,11aR,11bR,13aS)-3a-((1-hydroxy-2-methylpropan-2-yl)carbamoyl)-1-isopropyl-5a,5b,8,8,11a-pentamethyl-2-oxo-3,3a,4,5,5a,5b,6,7,7a,8,9,10,11,11a,11b,12,13,13a-octadecahydro-2H-cyclopenta[a]chrysen-9-yl)oxy)carbonyl)-2,2-dimethylcyclobutane-1-carboxylic acid] | 2.84 | 415 | 97 | 100 | 100 | 88.7 | 9080 | 70 | 22 | 6 |
